# Reference: patent US20120277211A1, “METHODS AND COMPOSITIONS FOR THE TREATMENT OF PSYCHOTIC DISORDERS THROUGH THE IDENTIFICATION OF THE SULT4A1-1 HAPLOTYPE” (priority 2009, published 2012)
# Read-outs that look alike come from different tables or passages of the source. Marks after values point to notes of the source that are not given here.
# Legend:
# [1] = system: unsegmented patient populations; conditions: cited from earlier work
# [2] = system: schizophrenia patients; conditions: Phase II; for Responders: decrease PANSS ≧20%, LOCF
# [3] = system: African American schizophrenia patients; assay: CATIE: change in total PANSS (LOCF) by SULT4A1-1 haplotype status, African Americans; format: in vivo, human; conditions: for Number of individuals with change in total PANSS ≦−20% (responders) / Number of individuals with change in total PANSS ≧−20% (non-responders): LOCF
# Protocol: The design of the CATIE study has been described in detail by others (Lieberman et al., 2005; Stroup et al., 2003). […] A total of 738 subjects consented to provide DNA for genetic study. […] Retrospective genetic analyses, judged to be exempt from human studies requirements by an IRB, were conducted in the current study. All tested patients were studied using well established clinical endpoints comparing baseline, intermediate, and last observation carried forward (LOCF) for the PANSS scores using CATIE data. […] To remove time on drug as a variable for the CATIE trial, analysis was limited to only those patients who were randomized to a different drug following the initial washout period (drug switchers).
# [4] = system: schizophrenia patients; assay: CATIE: months of successful treatment measured by the CGI scale (TMSUCC1); format: in vivo, human
# Description: The CATIE clinical data set included Clinical Global Impression (CGI) Scale, an observer-provided assessment of the psychiatric health of the patient (Stroup et al., 2003; Guy 1976). Patients are rated with the CGI Scale from 1 to 7, with higher scores indicating greater severity of illness. The CATIE study provided a response variable that measured the time (in months) of successful treatment as measured by the CGI scale (“TMSUCC1” in the CATIE data).
# [5] = system: Caucasian schizophrenia patients; assay: CATIE: time to discontinuation for all causes by SULT4A1-1 status; format: in vivo, human
# Description: The primary endpoint for the CATIE study was time to discontinuation for all causes (Lieberman et al., 2005). Thus the inventors evaluated the effect of SULT41-1 status on this important parameter.
# [6] = system: Caucasian schizophrenia patients; assay: CATIE: hospitalization due to exacerbation of psychosis by SULT4A1-1 status; format: in vivo, human
# Description: To assess if SULT4A1-1 status impacts the risk of hospitalization in Caucasians, the inventors assigned SULT4A1-1 status to each CATIE subject and evaluated hospitalization events due to exacerbation of psychosis. For this analysis, the inventors assigned a dichotomous value (positive or negative) for hospitalization status to subjects in each phase of the trial based on only the first hospitalization event for a given patient in that phase. Patients participating in Phases 1, 2, and/or 3 were included in the totals for the appropriate drug.
# A Kaplan-Meier survival analysis was performed to determine whether there was a difference between the survival (hospitalization) rates for the SULT4A1-1 negative and SULT4A1-1 positive patient populations treated with each of the atypical antipsychotics. Survival plots model the fraction of the population that survived (i.e., no hospitalization event) as a function of time.
# [7] = system: Caucasian schizophrenia patients; assay: CATIE Phase I: change in total PANSS (LOCF) by SULT4A1-1 haplotype status, Caucasians; format: in vivo, human; conditions: for Percent change from baseline PANSS scores, mean (standard deviation): Phase I; for Percent change from baseline PANSS scores, mean (standard deviation) / Number of individuals with change in total PANSS ≦−20% (responders) / Number of individuals with change in total PANSS ≧−20% (non-responders) / Responders: LOCF; for Number of individuals with change in total PANSS ≦−20% (responders) / Number of individuals with change in total PANSS ≧−20% (non-responders) / Responders: CATIE Caucasians; for Responders: change in PANSS ≦−20%
# Description: There are several different metrics for quantifying response in clinical trials of antipsychotic medications. The most commonly used psychometric instrument is the Positive and Negative Syndrome Scale (PANSS), a 30-item semi-quantitative instrument scored by clinical professionals (Kay et al., 1987). The greater the decrease in PANSS score, the better the clinical response. The most direct measure of clinical response is absolute change in PANSS score. In addition to absolute change, the improvement is often reported as a percentage change from baseline PANSS score.
# A decrease of at least 20% in total PANSS is one commonly used threshold for response (Leucht et al., 2009).
# The design of the CATIE study has been described in detail by others (Lieberman et al., 2005; Stroup et al., 2003). […] A total of 738 subjects consented to provide DNA for genetic study. […] Retrospective genetic analyses, judged to be exempt from human studies requirements by an IRB, were conducted in the current study.
# All tested patients were studied using well established clinical endpoints comparing baseline, intermediate, and last observation carried forward (LOCF) for the PANSS scores using CATIE data. LOCF analysis is a commonly used clinical endpoint for clinical trials for neuropsychiatric drugs, with changes in PANSS scores of between negative 20% and negative 30% used as typical endpoints to indicate clinically significant response (Leucht et al., 2009). To remove time on drug as a variable for the CATIE trial, analysis was limited to only those patients who were randomized to a different drug following the initial washout period (drug switchers).
# The CATIE clinical data set included baseline PANSS scores based on clinical assessments prior to initiation of the assigned therapy, but following the washout period for any patients previously on antipsychotic medication. Follow up PANSS data for the CATIE trial were collected at each visit as described in detail by others (Stroup et al., 2003).
# Since follow-up on subjects was not done at uniform time intervals, analysis was done using the last observation for each patient in treatment Phase I of the trial as the measure of response (last observation carried forward, LOCF). Main effect and interaction terms between the SULT4A1-1 haplotype and drug therapy were included in the linear model. A pre-determined set of contrasts for differences in percent change PANSS by haplotype within each drug therapy (three comparisons) and by drug therapy within each haplotype (six comparisons) were evaluated, with adjustment for multiple-comparisons using the step-up false-discovery rate (FDR) controlling procedure (Benjamini and Hochberg, 1995). A sub-analysis omitting those patients who were randomized to the same antipsychotic drug therapy was also conducted.
# [8] = comparator = labelled drug in SULT4A1-1+ patients
# [9] = complete sample, SULT4A1-1+, labelled drug vs Risperidone
# [10] = complete sample, within drug, SULT4A1-1+ vs SULT4A1-1−
# [11] = randomized to a different medication, SULT4A1-1+, labelled drug vs Risperidone
# [12] = randomized to a different medication, within drug, SULT4A1-1+ vs SULT4A1-1−
compound,measurement,setting,value
OCCOCCN1CCN(C2=Nc3ccccc3Sc3ccccc32)CC1 [Quetiapine],Effect Size vs. FGA,"[1]; first generation antipsychotics, Davis et al. (2003)",0.01
same,Effect Size vs. Placebo,"[1]; meta-analysis, Leucht et al. (2009), negative = greater reduction in PANSS",−0.42
same,"Mean difference in total PANSS score between olanzapine and labelled drug, Meta-analysis","[1]; unsegmented populations, Leucht et al. (2009)",−3.7
same,% Responders,[2]; SULT4A1-1 Negative,9.0%
same,Nonresponders,[2]; SULT4A1-1 Negative,10
same,Responders,[2]; SULT4A1-1 Negative,1
same,% Responders,[2]; SULT4A1-1 Positive,0%
same,Nonresponders,[2]; SULT4A1-1 Positive,1
same,Responders,[2]; SULT4A1-1 Positive,0
same,Responders,[3]; SULT4A1-1 negative,26.5%
same,Number of individuals with change in total PANSS ≦−20% (responders),[3]; SULT4A1-1 negative,9
same,Number of individuals with change in total PANSS ≧−20% (non-responders),[3]; SULT4A1-1 negative,25
same,Responders,[3]; SULT4A1-1 positive,33.3%
same,Number of individuals with change in total PANSS ≦−20% (responders),[3]; SULT4A1-1 positive,2
same,Number of individuals with change in total PANSS ≧−20% (non-responders),[3]; SULT4A1-1 positive,4
same,"Length of successful treatment (CGI Months), Mean",[4]; SULT4A1-1 negative,4.22 Months
same,"Length of successful treatment (CGI Months), Mean",[4]; SULT4A1-1 positive,5.96^c Months
same,"Length of successful treatment (CGI Months), Mean",[4]; Unsegmented,4.65 Months
same,"Time to discontinuation, mean",[5]; SULT4A1-1 negative,8.6*** Months
same,"Time to discontinuation, mean",[5]; SULT4A1-1 positive,10.3 Months
same,"HOSP, number of patients hospitalized",[6]; SULT4A1-1 negative,24
same,"HOSP, rate of hospitalization",[6]; SULT4A1-1 negative,19.5%
same,"HOSP, number of patients hospitalized",[6]; SULT4A1-1 positive,1
same,"HOSP, rate of hospitalization",[6]; SULT4A1-1 positive,2.9%
same,"HOSP, rate of hospitalization",[6]; Unsegmented,15.9%
same,"HOSP, number of patients hospitalized","[6]; Unsegmented, Phases 1, 2 and/or 3, first event",25
same,Kaplan-Meier: difference between survival (no hospitalization) rates of SULT4A1-1 negative and positive patients,[6]; per drug,significant difference
same,"Mean difference in total PANSS score between olanzapine and labelled drug, CATIE SULT4A1-1+",[7]; SULT4A1-1+,−12.9
same,"Percent change from baseline PANSS scores, mean (standard deviation)","[7]; SULT4A1-1+, complete sample",−4.52 (17.6) %
same,"Percent change from baseline PANSS scores, mean (standard deviation)","[7]; SULT4A1-1+, patients randomized to a different medication",−6.44 (19.0) %
same,DELTA PANSS % (mean change in PANSS score from baseline to LOCF),[7]; SULT4A1-1 negative,0*** %
same,Number of individuals with change in total PANSS ≦−20% (responders),[7]; SULT4A1-1 negative,13
same,Number of individuals with change in total PANSS ≧−20% (non-responders),[7]; SULT4A1-1 negative,50
same,Responders,[7]; SULT4A1-1 negative,20.6%**
same,DELTA PANSS % (mean change in PANSS score from baseline to LOCF),[7]; SULT4A1-1 positive,−9** %
same,Number of individuals with change in total PANSS ≧−20% (non-responders),[7]; SULT4A1-1 positive,11
same,Number of individuals with change in total PANSS ≦−20% (responders),"[7]; SULT4A1-1 positive, randomized to a different drug",7
same,Responders,[7]; SULT4A1-1 positive,38.8%
same,"Mean difference in total PANSS score between olanzapine and labelled drug, CATIE SULT4A1-1−",[7]; SULT4A1-1−,−3.8
same,"Percent change from baseline PANSS scores, mean (standard deviation)","[7]; SULT4A1-1−, complete sample",0.84 (26.5) %
same,"Percent change from baseline PANSS scores, mean (standard deviation)","[7]; SULT4A1-1−, patients randomized to a different medication",0.4 (26.7) %
same,"Mean difference in total PANSS score between olanzapine and labelled drug, CATIE unsegmented",[7]; Unsegmented,−6.2
same,Effect size: olanzapine SULT4A1-1+ vs comparator group,[7]; [8],0.75
same,Mean difference (95% CI) in delta PANSS: olanzapine SULT4A1-1+ minus comparator group,[7]; [8],−14.9 (−28.3 to −1.5)
same,Difference in percent change in PANSS score (first group minus second),[7]; [9],−1.0%
same,"Difference in percent change in PANSS score, corrected for age, age of onset and sex",[7]; [9],−0.54%
same,Difference in percent change in PANSS score (first group minus second),[7]; [10],−5.4%
same,"Difference in percent change in PANSS score, corrected for age, age of onset and sex",[7]; [10],−2.65%
same,Effect Size attributable to SULT4A1-1 status in CATIE,[7]; olanzapine-treated SULT4A1-1 positive versus labelled drug-treated SULT4A1-1 positive,−0.75^b
same,Difference in percent change in PANSS score (first group minus second),[7]; [11],−4.6%
same,"Difference in percent change in PANSS score, corrected for age, age of onset and sex",[7]; [11],−3.33%
same,Difference in percent change in PANSS score (first group minus second),[7]; [12],−6.8%
same,"Difference in percent change in PANSS score, corrected for age, age of onset and sex",[7]; [12],−2.91%
